In patent US20250000855A1, “USE OF APOMORPHINE AS THERAPEUTIC AGENT FOR NECROPTOSIS-RELATED DISEASES” (INDUSTRY-ACADEMIC COOPERATION FOUNDATION, YONSEI UNIVERSITY, priority 2021, published 2025):

Assays:
Type in all cases: cell-based, human
[1] = system: THP-1 cells; assay: Propidium iodide (PI) uptake / cell membrane integrity in TBZ-induced necroptosis
Experimental: (§1) Cells were pretreated with Z-VAD (invivoGen, tlrl-vad) and a compound for 1 hour, and necroptosis was induced with TNF-α (ATGen, TNF0501) and BV6 (Biovision, B1332-5) for the indicated time. The prepared cells were appropriately treated according to analysis (Z-VAD: carbobenzoxy-valyl-alanyl-aspartyl, TNF-α: tumor necrosis factor-α, BV6: 4,4′-(1,6-hexanediyl)bis[N-methyl-L-alanyl-(2S)-2-cyclohexylglycyl-L-prolyl-β-phenyl-L-phenylalaninamide)
Cells were plated in a flat, transparent-bottomed, black-walled 96-well plate, and subjected to 7-hour chemical treatment and necroptosis induction, and then PI (BD Biosciences, 556463) was added to a final concentration of 50 μg/ml. After incubation for 10 minutes under the original culture conditions, the cells were centrifuged at 400×g for 5 minutes. The emission wavelength at 617 nm following excitation at 530 nm was measured by real-time fluorescence monitoring on a Varioskan Flash 3001 plate reader. Data collection was performed at 37° C. (FIG. 1A).
As a first screening process, to investigate changes in cell membrane integrity by measuring PI uptake (Experimental Method 1-8), a compound in which the PI uptake had been reduced to less than 30% of the signal intensity upon TBZ treatment was selected.
After treating TBZ+APO-treated THP-1 cells with PI for 10 minutes, the PI taken up by the cells was measured on a microplate reader. […]

[2] = system: MLKL phosphorylation; assay: Western blotting for MLKL phosphorylation in TBZ+APO-treated cells; details: TBZ+APO-treated THP-1 cells, FIG. 1B
Experimental: as §1
Cells were treated with a drug candidate and then collected using centrifugation at 4° C. and 1,500×g for 5 minutes. A supernatant was centrifuged again at 4° C. and 1,500×g for 5 minutes to remove remaining debris, concentrated at 4° C. and 14,000×g for 30 minutes using Amicon ultra-0.5 centrifugal filter unit 10K (Millipore, UFC501096), and stored. The collected cells were lysed using 1× radioimmunoprecipitation assay (RIPA) buffer (GenDEPOT, R4100-010) containing a 1× protease inhibitor (GenDEPOT, P3100-001) and a phosphatase inhibitor (Thermo Fisher Scientific, 1862495). Subsequently, the cell lysate was centrifuged at 4° C. and 20,000×g for 30 minutes to remove debris. The extracted protein concentration was measured using a bicinchoninic acid (BCA) protein assay kit (Thermo Fisher Scientific, 23225). […]

[3] = system: MLKL translocation in transfected THP-1 cells; assay: Flag-MLKL translocation to cell membrane, immunofluorescent staining, confocal microscopy; details: transfected THP-1 cells stimulated with compound and TBZ, FIG. 3
Experimental: A human monocyte cell line THP-1 and a human colon cancer cell line HT-29 were maintained in a 10% FBS-Roswell Park Memorial Institute (RPMI) 1640 medium supplemented with 2 mM L-glutamine, 100 U/ml penicillin, and 100 μg/ml streptomycin at 37° C. under a 5% CO2 condition. The THP-1 cells were differentiated into macrophages in an RPMI 1640 medium containing 500 nM Phorbol 12-myristate 13-acetate (PMA) for 3 hours. Human mixed lineage kinase domain-like protein (MLKL)-flag plasmid (Sino Biological, HG12810-CF) transfection was performed using the electroporation system (Invitrogen) of MicroPorator-mini (Digital Bio).
Cells were seeded on cell culture-treated glass chamber slides. The cells were pretreated with Z-VAD, BV6, and the indicated compound for 1 hour, and then treated with TNF-α and BV6 overnight. Subsequently, the cells were washed with phosphate-buffered saline (PBS) and fixed in 4% paraformaldehyde for 10 minutes. Before incubation for 10 minutes in 0.25% Triton X-100 in PBS, the cells were washed three more times with PBS. The cells were blocked with 5% bovine serum albumin (BSA) in PBS for 30 minutes and stained using an anti-Flag (Sigma, F7425-2MG) antibody. The nuclei were stained with DAPI (Invitrogen, 00-4959-52). Images were captured using a confocal microscope (Olympus, FV1000). […]

With `CN1CCc2cccc3c2[C@H]1Cc1ccc(O)c(O)c1-3` [APO, apomorphine] the IC50 ([1]; Homo sapiens, THP-1, concentration-dependent APO treatment, FIG. 1D, read-out: IC50, change in cell membrane integrity) was 5.7 µM, the PI uptake rate ([1]; THP-1 cells treated with TBZ (TNF-α+BV6+Z-VAD)+APO, PI 10 minutes, FIG. 1A) was “effectively reduced” and the MLKL phosphorylation [2] was “did not inhibit”. The “distribution of Flag-MLKL signals” value [3] was “mostly distributed in the cytoplasm”.
